Measured values published in patent US20200147058A1, “KRAS INHIBITOR FOR USE IN TREATING CANCER” (Friedrich-Alexander-Universitat Erlangen-Numberg, priority 2016, published 2020).

Legend:
Format in all cases: cell-based, human
PLC cells = assay: Western blot pERK- and pAKT protein levels; details: Deltarasin vs DMSO
Mel Juso cells [1] = assay: long-term treatment, emergence of surviving tumor cells and drug resistance; details: 28 days, IC50 or 2×IC50
Mel Juso cells [2] = assay: FACS analysis of apoptosis (Annexin / propidium iodide)
Text: (§1) FIGS. 4A through 4H depict that small Molecule KRAS Inhibition Reduces Proliferation and Induces Apoptosis in Melanoma. FIGS. 4A and 4B show proliferation (slope of cell index) of Mel Juso (FIG. 4A) and Mel Im (FIG. 4B) cells treated with DMSO and different concentrations of the KRAS small molecule inhibitor Deltarasin (DR). The cell index as dimensionless parameter for cell proliferative ability was used to determine the half maximal inhibitory concentration (IC50, small graphs) of DR. […] FIG. 4D illustrates exemplary images of different melanoma cell lines (Mel Im, Mel Juso and Mel Ei) treated with 5 μM DR or 5 μM DMSO, respectively, for 24 hours. FIGS. 4E and 4F show images of fibroblast cell lines derived from two different donors (F1, F2) and melanocytes (NHEM) treated DR (20 μM, 48 hours) or DMSO (FIG. 4E), and lactate dehydrogenase (LDH) quantification (FIG. 4F) in cell supernatants (optic density, OD) of NHEM after treatment with low dose DMSO, DR (5 μM), and DR (10 μM), respectively.
(§2) FIGS. 5A through 5D show time-dependent measurement of colony diameters (exemplary data in top panels) in three-dimensional, anchorage-independent “colony-forming” assays (FIGS. 5A and 5B: Mel Im, FIGS. 5C and 5D: Mel Juso). Exemplary Images (middle) and corresponding quantification of colony diameters (bottom panels, summarized data of n=3 experiments at day 19 after seeding) are also depicted. Treatments were performed in four different groups (10 μM DMSO, 5 μM Deltarasin=DR, M PLX-4032=PLX (vemurafenib), or combination of 10 μM PLX+[…]). Effects on i) colony formation (FIGS. 5A and 5C, treatment at day 1) and ii) proliferation of pre-formed colonies (FIGS. 5B and 5D, treatment at day 7 and 13) were analyzed. […] FIG. 5F show images of PLX-primary resistant Mel Juso cells treated with DMSO, DR (5 μM), high dose PLX (20 μM) and a combination of 5 μM DR+10 μM PLX for 24 hours. […] Cells were treated for 5 hours with DMSO, 5 μM Deltarasin (DR), 10 μM PLX, or a combination of 10 μM PLX and 5 μM DR. According to exemplary images for Annexin and propidium iodide (PI) staining are depicted for Mel Im. (FIG. 5H) Mel Im and Mel Juso were transfected with control si-RNA (si-CTR) or with si-KRAS (si-KR). Two subgroups (blue and red) were additionally treated with 10 μM PLX (Vemurafenib) for 24 hours, with subsequent flow cytometric quantification of tumor cell apoptosis according to FIG. 5G. Exemplary images for Annexin and propidium iodide (PI) staining are depicted for Mel Im.

Mel Im cells [3] = assay: as above
Text: as §1, §2

Hep3B cells = assay: Western blot pERK- and pAKT protein levels; details: Deltarasin vs DMSO
[4] = test system: resistant cell clones (SkMel28-R, 451Lu-R); assay: real-time cell proliferation of BRAFi-resistant melanoma cells; details: in combination with 5 or 10 μM PLX
Experimental: FIGS. 6A through 6H depict that KRASi Prevents Emergence of Resistance and KRAS Expression is Regulated Dynamically in Acquired Resistance to BRAFi. […] Asterisks indicate significant differences (p<0.05) as compared to according control (0 μM PLX). FIGS. 6E and 6F are exemplary Western blot images (FIG. 6E) depicting immunostaining of AKT, pAKT, ERK, pERK, and KRAS. Densitometric values (DM) are also shown, representing relative quantifications. Resistant cell lines 451Lu-R and SkMel28-R were treated with 0, 5, or 10 μM PLX for 8 hours, and according summarized quantification of KRAS protein expression (n=3, FIG. 6F).
FIGS. 7A through 7I present KRAS Inhibition Re-sensitizes BRAF Inhibitor Resistant Cells for Inhibition of Proliferation and Induction of Apoptosis. […] show real-time cell proliferation (exemplary proliferation curve depicted in FIG. 6A, summarized slopes of proliferation curves depicted in FIG. 6B) of PLX-resistant cells treated with si-KRAS (KR) or control si-RNA (CTR), respectively, in combination with 5 or 10 μM PLX. FIGS. 7C and 7D show real-time cell proliferation (exemplary proliferation curve depicted in […], summarized slopes of proliferation curves depicted in FIG. 7D) of PLX-resistant cells treated with Deltarasin (DR) or DMSO, respectively, in combination with 5 or 10 μM PLX, according to FIGS. 7A and 7B. […]

Hep3B = assay: real-time cell proliferation assay; details: DR doses
Htz19 melanoma cells = assay: FACS analysis of apoptosis; details: 5 hours, 5 μM DR
Mel Im cells [5] = assay: long-term treatment, emergence of surviving tumor cells and drug resistance; details: 28 days, IC50 or 2×IC50
Text: as §1
FIGS. 6A through 6H depict that KRASi Prevents Emergence of Resistance and KRAS Expression is Regulated Dynamically in Acquired Resistance to BRAFi. […] Asterisks indicate significant differences (p<0.05) as compared to according control (0 μM PLX). […] Densitometric values (DM) are also shown, representing relative quantifications. […]

[6] = 5 hours, 5 μM DR, 10 μM PLX or combination

c1ccc(Cn2c(-c3ccc(OC[C@H](C4CCNCC4)n4c(-c5ccccc5)nc5ccccc54)cc3)nc3ccccc32)cc1 [Deltarasin, (S)-1-Benzyl-2-(4-(2-(2-phenyl-1H-benzo[d]imidazol-1-yl)-2-(piperidin-4-yl)ethoxy)phenyl)-1H-benzo[d]imidazole]
pERK- and pAKT protein levels (PLC cells): significant reduction | surviving tumor cells after long-term treatment (Mel Juso cells [1]): no surviving tumor cells were detected | induction of apoptosis (FACS) (Mel Juso cells [2]; 5 μM for 8, 16 and 24 hours): marked time-dependent induction of apoptosis | apoptosis (FACS), short treatment (Mel Juso cells [2]; [6]): did not induce apoptosis | induction of apoptosis (FACS) (Mel Im cells [3]; 5 μM for 8, 16 and 24 hours): marked time-dependent induction of apoptosis | apoptosis (FACS), short treatment (Mel Im cells [3]; [6]): only slightly induced apoptosis | pERK- and pAKT protein levels (Hep3B cells): significant reduction | proliferation of PLX-treated, BRAFi-resistant melanoma cells [4]: dose dependent inhibition of proliferation | inhibition of proliferation (Hep3B): strong dose-dependent inhibition of proliferation | apoptosis (FACS), short treatment (Htz19 melanoma cells): only slightly induced apoptosis | surviving tumor cells after long-term treatment (Mel Im cells [5]): no surviving tumor cells were detected
